Earlier results on 6 compounds are cited in patent US20070032466A1, “Drug containing chymase inhibitor as the active ingredient” (TEIJIN PHARMA LIMITED, priority 2003, published 2007).

Data set [1] relates to hamster model of myocardial infarction. The following applies: administrated alone.
The test system of data set [2] is canine model of myocardial infarction. To be noted: oral administration.
The next data set deals with mouse allergy model. To be noted: oral administration.
Another data set relates to new onset of diabetes. To be noted: large scale clinical tests (CARPPP, HOPE, LIFE studies).

For the compound `CCOc1ccccc1CC1C(=O)N(C(=O)NC(c2ccc(C)cc2)c2ccc(C)cc2)C1C(=O)c1ccc(C(=O)O)cc1` (stereo not drawn) [4-[1-{[bis(4-methylphenyl)methyl]carbamoyl}-3-(2-ethoxybenzyl)-4-oxoazetizin-2-yloyl]benzoic acid], in data set [1], the “effect on a hamster model of myocardial infarction” value is recorded as “has an effect”.

Consider `O=CNc1cnc(-c2ccccc2)n(CC(=O)NC(Cc2ccccc2)C(=O)C(=O)CCCOc2ccccn2)c1=O` (stereo not drawn) [III-I], for which the “effectiveness in a canine model of myocardial infarction” value in data set [2] is “effective”.

Consider `COC(=O)c1ccc2oc(C(=O)C(Cc3ccccc3)NC(=O)Cn3c(-c4ccccc4OC)ncc(N)c3=O)nc2c1` (stereo not drawn) [IV-I], for which the “activity as a chymase inhibitor in a mouse allergy model” value with mouse allergy model is reported as “exhibit activity as a chymase inhibitor”. As to `C[C@H](CS)C(=O)N1CCC[C@H]1C(=O)O` [captopril], in the data set with new onset of diabetes, the “suppression of new onset of diabetes” value is recorded as “suppress new onset of diabetes”. Consider `CCCCc1nc(Cl)c(CO)n1Cc1ccc(-c2ccccc2-c2nn[nH]n2)cc1` [losartan], for which, in the data set with new onset of diabetes, the “suppression of new onset of diabetes” value is “suppress new onset of diabetes”. Turning to `CCOC(=O)[C@H](CCc1ccccc1)N[C@@H](C)C(=O)N1[C@H](C(=O)O)C[C@@H]2CCC[C@@H]21` [ramipril], the “suppression of new onset of diabetes” value in the data set on new onset of diabetes is “suppress new onset of diabetes”.
